Data set [1] can be described thus: Serum chemistry profiles of mice. In kind it is in vivo. The note with it: serum 2 days after last dose; ISC-4 3 mg/kg i.p., cetuximab 10 mg/kg i.v., twice a week for 2 weeks. As for the experimental part: Athymic female nude mice (Charles River Laboratories) are inoculated with 1×10^6 of 5-FU-resistant RKO or HT-29 cells in each rear flank as a 200 μL suspension of 1:1 Matrigel (BD):PBS. Treatment is initiated once tumors reached a mean volume of […], intraperitoneal or intravenous injections are given at a total volume of 200 μL in DMSO. […] Tissue is paraffin-embedded and sectioned. H&E staining (Daiko) and TUNEL staining (Millipore) are carried out according to the manufacturer's protocols. For serum chemistry assays, 1 mL of blood is harvested from anesthetized mice by terminal cardiac puncture of the left ventricle. For serum chemistry, 500 μL is placed into a microfuge tube and allowed to clot for 30 minutes at room temperature followed by centrifugation. Serum is removed, centrifuged again to remove any additional debris prior to analysis.
Serum was collected 2 days following the last dose.

Data set [2] deals with panel of human cancer cell lines. Briefly: Cell viability assay of ISC-4 in a panel of human cancer cell lines (72 hr). In kind it is cell-based. The following applies: human colon cancer cell lines with the exception of HT-29. As for the experimental part: Cell lines are obtained from ATCC and cultured in ATCC-recommended media in a humidified incubator at 5% CO2 and 37° C. For cell viability assays, cells are seeded into 96-well black-walled plates at a concentration of 1×10^5 cells per mL in fresh media and in a volume of 100 μL per well. Cells are allowed to adhere overnight and are treated the next day as indicated. At endpoint, CellTiter-Glo (Promega) assays are performed according to the manufacturer's protocol, and the bioluminescent readout is recorded on an IVIS imaging system (Xenogen). For cell synchronization, cells are incubated with 200 ng/mL nocodazole for 16 hours prior to treatment. Chloroquine is obtained from Sigma. zVAD-fmk is obtained from Promega and used at a working concentration of 25 μM. ISC-4 is synthesized as described in Sharma, A. K., et al., J. of Med. Chem., 2008, 51(24):7820-7826.
The in vitro activity of ISC-4 is tested in a panel of human cancer cell lines to characterize its spectrum of activity.
The isogenic HCT116 cell lines indicate that ISC-4 activity is likely p53- and Bax-independent.

For data set [3], the system named is human colon cancer cell lines. Briefly: Cell cycle / sub-G1 DNA content analysis after ISC-4 treatment. In kind it is cell-based. How it is done: (§1) For sub-G1 DNA content analysis, cells are trypsinized at the indicated time points and fixed in 80% ethanol at 4° C. for a minimum of 30 minutes. Fixed cells are then stained with propidium iodide in the presence of RNase and analyzed on an Epics Elite flow cytometer (Beckman Coulter).
The effect of ISC-4 treatment on cell cycle profiles of synchronous and asynchronous HCT116 (FIG. 1B) and HT-29 (FIG. 1C) cell lines is shown. […] Thus, ISC-4 has modest single agent activity against human colon cancer cells by causing cell death and a decrease in proliferation.

The subject of a further data set is RKO cells. Briefly: Sub-G1 content by flow cytometry, combination. It counts as cell-based, human. The following applies: zVAD-fmk 25 μM. How it is done:
as §1

Bounds are passed on as bounds.

On to `[Se]=C=NCCCCc1ccccc1` [ISC-4], for which, in data set [1], the ALT was 29 ± 2 U/L, the AST is reported as 221 ± 138 U/L, the “Alk. Phos. (alkaline phosphatase)” value is listed as 35 ± 10 U/L and the “BUN (blood urea nitrogen)” value came to 22 ± 1 mg/dL. In data set [1], the Cl was 107 ± 3 mmol/L, the Creatinine is 0.1 ± 0 mg/dL, the Glucose was determined as 309 ± 8 mg/dL and the K is 4.8 ± .1 mmol/L. Moreover, in data set [1], the “LDH (lactate dehydrogenase)” value came out at 1074 ± 531 U/L, the Na is reported as 155 ± 2 mmol/L and the “T. Bil (total bilirubin)” value stood at 0.65 ± 0.07 mg/dL. For the same compound, in data set [2], the “Sensitivity to ISC-4 treatment” value is on record as “moderately sensitive”. Also, in data set [3] (colon cancer cell lines, 0, 1, 2, 4, 8, or 16 μM ISC-4, dose-dependent), the “Concentration at which ISC-4-induced sub-G1 content becomes apparent” value was greater than 8 µM. The Sub-G1 content entry in data set [3] (synchronized HCT116 and HT-29 cells) was “modest increase in sub-G1 content”. Moreover, the “ISC-4-induced sub-G1 content on co-incubation with pan-caspase inhibitor zVAD-fmk” value in the data set on RKO cells is recorded as “significantly inhibited”.

Source of the values: US20150328310A1, “METHODS AND COMPOSITIONS RELATING TO TREATMENT OF CANCER” (THE PENN STATE RESEARCH FOUNDATION, priority 2012, published 2015).
